# Test results: US20220120736A1, “METHODS AND ASSAYS FOR MODULATING GENE TRANSCRIPTION BY MODULATING CONDENSATES” (Whitehead Institute for Biomedical Research, priority 2018, published 2022)
# Legend:
# Format in all cases: cell-based
# MYC oncogene = experiment: Confocal microscopy of MED1 condensates at MYC; conditions: presence versus absence of estrogen
# [1] = system: ER LBD point mutant-MED1 condensate in U2OS-Lac cells; experiment: LAC binding assay, ER LBD point mutants tethered to Lac array; conditions: ER mutants (Y537S, D538G)
# Protocol: Constructs were assembled by NEB HIFI cloning in pSV2 mammalian expression vector containing an SV40 promoter driving expression of a CFP-LacI fusion protein. The activation domains and mutant activation domains of ESR1 were fused by the c-terminus to this recombinant protein, joined by the linker sequence […] (SEQ ID NO: 14). For some experiments a variant plasmid with mCherry in place of CFP was used. […] Cells were then plated on fibronectin-coated glass coverslips and transfected using lipofectamine 3000 (Thermofisher L3000015). For high MED1 conditions, a construct with a mammalian expression vector containing a PGK promoter driving the expression of MED1 fused to GFP was co-transfected. […]
# For analysis of Lac array data, custom Python scripts were written to process and analyze image data gathered in Lac and tagged-protein channels. […] Segmented regions (also determined by measure.label) were then filtered based on minimum area (150 pixels), maximum area (2000 pixels), circularity (c=4pi*area/perimeter^2; 0.8), and presence in a nucleus as defined by the mask described above. A norm enrichment ratio was calculated by determining the mean intensity of the tagged-protein in the segmented Lac spot and dividing it by the mean intensity of the tagged-protein present in the same whole nucleus.
# OCT4 (FKBP-tagged) [2] = biological target: T1, OCT4 (FKBP-tagged) (Mus musculus, UniProt P20263+Q8C7D2); experiment: Western blot after OCT4 degradation in OCT4 degron line; conditions: dTag versus DMSO
# T1 construct: an ESC line bearing endogenous knock-in of DNA encoding the FKBP protein fused to OCT4; HA (C); endogenous in cells; host or cells: V6.5 mouse ES cells (Med1-mEGFP background), homozygous Oct4-FKBP knock-in
# T1 sequence (P20263 with tags, fused parts or gaps): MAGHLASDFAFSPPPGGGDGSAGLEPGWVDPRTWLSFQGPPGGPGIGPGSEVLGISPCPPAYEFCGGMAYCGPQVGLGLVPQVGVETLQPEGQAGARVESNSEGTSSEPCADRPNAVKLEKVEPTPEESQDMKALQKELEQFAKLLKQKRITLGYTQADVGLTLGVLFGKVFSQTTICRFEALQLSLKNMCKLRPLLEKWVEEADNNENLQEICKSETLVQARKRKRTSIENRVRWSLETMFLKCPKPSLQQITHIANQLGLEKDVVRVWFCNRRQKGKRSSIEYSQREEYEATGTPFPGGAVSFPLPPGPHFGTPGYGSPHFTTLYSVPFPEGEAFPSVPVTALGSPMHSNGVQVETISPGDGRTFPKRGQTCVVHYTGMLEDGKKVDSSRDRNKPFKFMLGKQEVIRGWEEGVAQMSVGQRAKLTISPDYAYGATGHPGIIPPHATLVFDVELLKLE
# T1 sequence (Q8C7D2 whole entry, the tested form may be a part): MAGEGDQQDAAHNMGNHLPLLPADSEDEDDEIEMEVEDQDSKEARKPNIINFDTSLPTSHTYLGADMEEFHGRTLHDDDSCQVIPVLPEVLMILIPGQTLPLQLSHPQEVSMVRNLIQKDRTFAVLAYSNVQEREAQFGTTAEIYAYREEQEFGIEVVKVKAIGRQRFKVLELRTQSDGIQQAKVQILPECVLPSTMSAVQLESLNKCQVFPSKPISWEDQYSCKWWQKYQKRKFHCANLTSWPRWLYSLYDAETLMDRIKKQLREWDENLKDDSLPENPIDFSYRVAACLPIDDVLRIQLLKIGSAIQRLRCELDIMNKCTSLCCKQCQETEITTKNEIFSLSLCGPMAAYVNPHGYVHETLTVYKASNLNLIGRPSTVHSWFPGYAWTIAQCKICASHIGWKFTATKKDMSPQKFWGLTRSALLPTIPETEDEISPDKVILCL
# T1 sequence (Q3U1J4 whole entry partner, the tested form may be a part): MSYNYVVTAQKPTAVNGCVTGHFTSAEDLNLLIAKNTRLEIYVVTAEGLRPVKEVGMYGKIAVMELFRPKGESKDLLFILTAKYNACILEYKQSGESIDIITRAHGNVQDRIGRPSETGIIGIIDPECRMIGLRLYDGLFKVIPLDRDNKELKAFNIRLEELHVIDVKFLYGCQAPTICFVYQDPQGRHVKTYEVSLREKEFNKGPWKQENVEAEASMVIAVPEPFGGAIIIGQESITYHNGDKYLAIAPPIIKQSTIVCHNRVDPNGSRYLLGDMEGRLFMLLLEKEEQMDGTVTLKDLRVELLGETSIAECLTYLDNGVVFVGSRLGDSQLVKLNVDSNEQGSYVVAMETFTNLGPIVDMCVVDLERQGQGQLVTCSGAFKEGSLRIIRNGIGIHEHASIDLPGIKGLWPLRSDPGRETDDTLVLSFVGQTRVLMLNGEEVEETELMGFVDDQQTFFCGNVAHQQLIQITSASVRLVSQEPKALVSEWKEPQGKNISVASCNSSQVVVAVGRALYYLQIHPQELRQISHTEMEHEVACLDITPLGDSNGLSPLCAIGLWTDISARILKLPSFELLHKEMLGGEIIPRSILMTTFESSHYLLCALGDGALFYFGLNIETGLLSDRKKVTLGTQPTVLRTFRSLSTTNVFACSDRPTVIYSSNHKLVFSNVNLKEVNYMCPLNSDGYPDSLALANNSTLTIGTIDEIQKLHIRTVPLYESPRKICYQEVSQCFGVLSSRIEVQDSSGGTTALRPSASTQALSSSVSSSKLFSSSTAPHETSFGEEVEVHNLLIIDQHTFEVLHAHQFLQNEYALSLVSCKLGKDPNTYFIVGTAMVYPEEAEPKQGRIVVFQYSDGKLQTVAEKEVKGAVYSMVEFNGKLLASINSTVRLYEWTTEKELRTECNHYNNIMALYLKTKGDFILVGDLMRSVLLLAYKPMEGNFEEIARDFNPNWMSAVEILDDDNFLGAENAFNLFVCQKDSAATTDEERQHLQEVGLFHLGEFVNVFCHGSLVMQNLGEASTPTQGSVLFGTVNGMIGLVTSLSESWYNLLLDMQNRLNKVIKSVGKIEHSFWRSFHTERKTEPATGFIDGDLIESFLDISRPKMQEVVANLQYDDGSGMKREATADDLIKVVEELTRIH
# Protocol: Cells were lysed in Cell Lytic M (Sigma-Aldrich C2978) with protease inhibitors (Roche, 11697498001). Lysate was run on a 3%-8% Tris-acetate gel or 10% Bis-Tris gel or 3-8% Bis-Tris gels at 80 V for ˜2 hrs, followed by 120 V until dye front reached the end of the gel. Protein was then wet transferred to a 0.45 μm PVDF membrane (Millipore, IPVH00010) in ice-cold transfer buffer (25 mM Tris, 192 mM glycine, 10% methanol) at 300 mA for 2 hours at 4° C. After transfer the membrane was blocked with 5% non-fat milk in TBS for 1 hour at room temperature, shaking. Membrane was then incubated with 1:1,000 of the indicated antibody (Table S4) diluted in 5% non-fat milk in TBST and incubated overnight at 4° C., with shaking. In the morning, the membrane was washed three times with TBST for 5 minutes at room temperature shaking for each wash. Membrane was incubated with 1:5,000 secondary antibodies for 1 hr at RT and washed three times in TBST for 5 minutes. Membranes were developed with ECL substrate (Thermo Scientific, 34080) and imaged using a CCD camera or exposed using film or with high sensitivity ECL.
# (§1) The CRISPR/Cas9 system was used to genetically engineer ESC lines. Target-specific oligonucleotides were cloned into a plasmid carrying a codon-optimized version of Cas9 with GFP (gift from R. Jaenisch). […]
# OCT4 (FKBP-tagged) [3] = biological target: T1, OCT4 (FKBP-tagged); experiment: RNA-seq after OCT4 degradation in OCT4-FKBP ESCs; conditions: dTag 24 hours versus DMSO
# Protocol: RNA-Seq was performed in the indicated cell line with the indicated treatment, and used to determine expressed genes. RNA was isolated by AllPrep Kit (Qiagen 80204) and stranded polyA selected libraries was prepared using the TruSeq Stranded mRNA Library Prep Kit (Illumina, RS-122-2101) according to manufacturer's protocol and single-end sequenced on a Hi-seq 2500 instrument.
# as §1, with “Jaenisch). The sequences of the DNA targeted (the protospacer adjacent motif is underlined) are listed in the same table.” for “Jaenisch).”
# For analysis, raw reads were aligned to the mm9 revision of the mouse reference genome using hisat2 with default parameters. Gene name-level read count quantification was performed with htseq-count with parameters -I gene_id -stranded=reverse -f bam -m intersection-strict and a GTF containing transcript positions from Refseq, downloaded 6/6/18. Normalized counts, normalized fold-changes, and differential expression p values were determined using DEseq2 using the standard workflow and both replicates of each condition.
smiles,measurement,setting,value
"C[C@]12CC[C@@H]3c4ccc(O)cc4CC[C@H]3[C@@H]1CC[C@@H]2O [estrogen, B-Estradiol]",MED1 condensate formation at the MYC oncogene,MYC oncogene,stimulates MED1 condensate formation at the MYC oncogene
same,"MED1 condensate formation at tethered ER LBD, dependence on estrogen",[1],both in the presence and absence of estrogen
CC[C@H](C(=O)N1CCCC[C@H]1C(=O)O[C@H](CCc1ccc(OC)c(OC)c1)c1ccccc1OCC(=O)NCCCCCCCCNc1ccc2c(c1)C(=O)N(C1CCC(=O)NC1=O)C2=O)c1cc(OC)c(OC)c(OC)c1 (stereo partly drawn) [dTag],MED1 protein levels,OCT4 (FKBP-tagged) [2],did not affect MED1 levels
same,OCT4 protein levels,OCT4 (FKBP-tagged) [2],reduced OCT4 protein levels
same,expression of SE-driven genes,OCT4 (FKBP-tagged) [3],concomitantly decreased
same,reduction in Nanog mRNA levels,OCT4 (FKBP-tagged) [3],60%
